Laboratory results taken from publication PMC2610240 (Drug metabolism and disposition: the biological fate of …, 2008).
“And” between values parts separate entries of the source, which are not always exact repeats. Equal values may be shown once.

Assays:
[1] = molecular target: T1, CPR activity in human liver microsomes (Homo sapiens, UniProt P16435); assay: Inhibition of CPR activity in HLMs
T1 sequence (P16435 1-677): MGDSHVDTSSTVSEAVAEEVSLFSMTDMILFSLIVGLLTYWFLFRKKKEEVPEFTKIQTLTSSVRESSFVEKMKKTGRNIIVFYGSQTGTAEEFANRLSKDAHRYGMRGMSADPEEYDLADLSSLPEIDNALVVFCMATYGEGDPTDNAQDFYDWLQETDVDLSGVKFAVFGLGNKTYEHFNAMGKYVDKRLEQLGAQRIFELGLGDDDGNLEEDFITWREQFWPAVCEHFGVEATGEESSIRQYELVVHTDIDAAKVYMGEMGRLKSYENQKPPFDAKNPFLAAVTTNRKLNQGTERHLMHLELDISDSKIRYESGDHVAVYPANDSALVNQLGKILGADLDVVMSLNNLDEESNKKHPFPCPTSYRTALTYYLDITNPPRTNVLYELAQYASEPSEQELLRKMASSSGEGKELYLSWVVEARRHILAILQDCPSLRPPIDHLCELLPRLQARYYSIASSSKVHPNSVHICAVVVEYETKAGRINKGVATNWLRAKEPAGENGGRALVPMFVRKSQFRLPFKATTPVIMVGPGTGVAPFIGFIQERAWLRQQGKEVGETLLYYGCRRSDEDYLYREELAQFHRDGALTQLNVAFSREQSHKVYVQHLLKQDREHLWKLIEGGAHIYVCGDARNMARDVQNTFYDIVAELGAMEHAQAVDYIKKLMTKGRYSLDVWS

[2] = molecular target: T2, purified recombinant human b5R (NADH b5 reductase) (Homo sapiens, UniProt P00387); assay: Inhibition of recombinant b5R activity; type: biochemical
T2 sequence (P00387 1-301): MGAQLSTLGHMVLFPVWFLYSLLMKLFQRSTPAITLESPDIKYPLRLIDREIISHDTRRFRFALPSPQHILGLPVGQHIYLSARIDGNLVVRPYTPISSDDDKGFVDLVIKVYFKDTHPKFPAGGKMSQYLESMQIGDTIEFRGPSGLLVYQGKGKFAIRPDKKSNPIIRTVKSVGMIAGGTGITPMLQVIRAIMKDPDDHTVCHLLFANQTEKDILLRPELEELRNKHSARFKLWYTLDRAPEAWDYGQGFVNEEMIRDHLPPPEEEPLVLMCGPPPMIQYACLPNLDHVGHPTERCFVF

[3] = molecular target: T3, b5R activity in human liver microsomes (Homo sapiens, UniProt P00387); assay: Inhibition of b5R activity in HLMs; type: biochemical
T3 sequence (P00387 1-301): T2 sequence (P00387 1-301)

[4] = molecular target: T4, purified recombinant human CPR (NADPH-cytochrome P450 reductase) (Homo sapiens, UniProt P16435); assay: Inhibition of recombinant CPR activity; settings: recombinant enzyme
T4 sequence (P16435 1-677): T1 sequence (P16435 1-677)

[5] = tested on: b5R activity in rat liver microsomes; settings: concentrations up to 10 mM, ref Lee and Kariya, 1986; cited from earlier work
[6] = tested on: CPR activity in rat liver microsomes; settings: concentrations up to 10 mM, ref Lee and Kariya, 1986; cited from earlier work
[7] = molecular target: T4, purified recombinant human CPR (NADPH-cytochrome P450 reductase); assay: biochemical

| Compound | reduction in CPR activity ([1]; 4 mM PTU (highest concentration)) | decrease in b5R activity ([2]; recombinant enzyme, 4 mM PTU, 15 min pre-incubation at 25°C) [%] | reduction in b5R activity ([3]; 4 mM PTU (highest concentration), 15 min pre-incubation at 25°C) [%] | maximal inhibition of b5R activity ([3]; over 1 to 4 mM PTU) | decrease in CPR activity ([4]; 4 mM PTU) [%] | effect on b5R activity [5] | effect on CPR activity [6] | reduction in CPR activity ([1]; 2 mM α-lipoic acid) [%] | IC50 [2] [µM] | reduction in b5R activity ([2]; recombinant enzyme, 2 mM α-lipoic acid, maximal effect) [%] | IC50 [7] [µM] | reduction in b5R activity ([3]; 2 mM α-lipoic acid) [%] | reduction in CPR activity ([4]; 2 mM α-lipoic acid, maximal effect) [%] |
| --- | --- | --- | --- | --- | --- | --- | --- | --- | --- | --- | --- | --- | --- |
| CCCc1cc(=O)[nH]c(=S)[nH]1 [PTU, 6-propyl-2-thiouracil] | 16% and < 20% | 78 | 41 | about 40% | 51 | selectively inhibit b5R activity | without reducing CPR activity | – | – | – | – | – | – |
| O=C(O)CCCCC1CCSS1 (stereo not drawn) [α-lipoic acid] | – | – | – | – | – | – | – | 76 | 50 ± 50 | 84 | 140 ± 20 | 54 | 92 |
